Values joined by “and” are separate entries in the source; they are usually repeats but may differ in a detail not shown here. Equal values may be shown once.
Test: In vitro metabolic blocking of HCV NS3/4a protease inhibitors by compound of formula (II) in human liver microsomes
Format: in vitro ADME
Settings: for % Detected Compound, Incubation time: 30′, Compound of formula (II) / % Detected Compound, Incubation time: 120′, Compound of formula (II): 3 μM test compound + 10 μM compound of formula (II); for % Detected Compound, Incubation time: 30′, Compound of formula (II) / % Detected Compound, Incubation time: 120′, Compound of formula (II) / % Detected Compound, Incubation time: 30′, No Booster / % Detected Compound, Incubation time: 120′, No Booster: human liver microsomes 1 mg/ml, 37° C., % of initial concentration; for % Detected Compound, Incubation time: 30′, Compound of formula (II) / % Detected Compound, Incubation time: 30′, No Booster: 30 min; for % Detected Compound, Incubation time: 120′, Compound of formula (II) / % Detected Compound, Incubation time: 120′, No Booster: 120 min; for % Detected Compound, Incubation time: 30′, No Booster / % Detected Compound, Incubation time: 120′, No Booster: 3 μM test compound
Procedure: Different HCV NS3/4a protease inhibitors were tested in a metabolic blocking experiment using 3 μM test compound together with 10 μM of compound of formula (II) acting as a cytochrome P450 inhibitor (or booster).
Test compounds and compound of formula (II) were added to human liver microsomes (protein concentration 1 mg/ml) suspended in potassium phosphate buffer (pH=7.4), to get final reaction mixture concentrations of 3 μM test compound and 10 μM of compound of formula (II). In the non-boosted parallel reactions, compound of formula (II) was not added. Boiled human liver microsomes were used for blank experiments. After addition (in a 1:3 ratio) of a cofactor mixture consisting of β-nicotinamide adenine dinucleotide phosphate (β-NADP, 0.5 mg/ml, 653.2 μM), D-Glucose-6-phosphate (2 mg/ml, 7.1 mM), Glucose-6-phosphate dehydrogenase (1.5 U/ml) in 2% NaHCO3, the reaction mixture was incubated at 37° C. for 30 or 120 minutes after which the reaction was stopped by increasing the temperature to 95° C. Test compound concentrations were determined using HPLC-MS.
Values are percentages of test compound detected after the indicated incubation times as compared to the initial test compound concentration. In Table 3, each value is the mean of the results of two independent experiments. In Table 4, each value is the result of an independent experiment.

[1] = mean of two independent experiments
[2] = each value one independent experiment

Compound	% Detected Compound, Incubation time: 30′, Compound of formula (II) [1] [%]	% Detected Compound, Incubation time: 120′, Compound of formula (II) [1] [%]	% Detected Compound, Incubation time: 30′, No Booster [1] [%]	% Detected Compound, Incubation time: 120′, No Booster [1] [%]	% Detected Compound, Incubation time: 30′, Compound of formula (II) [2]	% Detected Compound, Incubation time: 120′, Compound of formula (II) [2]	% Detected Compound, Incubation time: 30′, No Booster [2]	% Detected Compound, Incubation time: 120′, No Booster [2]	blocking of test compound metabolisation (10 μM compound of formula (II) added to 3 μM test compound, human liver microsomes)
COc1ccc2c(O[C@@H]3C[C@H]4C(=O)N[C@]5(C(=O)NS(=O)(=O)C6CC6)C[C@H]5/C=C\CCCCCNC(=O)N4C3)cc(-c3nc(C(C)C)cs3)nc2c1 [Compound 18]	131	196	42	0					
COc1ccc2c(O[C@@H]3C[C@H]4C(=O)N[C@]5(C(=O)NS(=O)(=O)C6CC6)C[C@H]5/C=C\CCCCN(C)C(=O)[C@@H]4C3)cc(-c3nc(C(C)C)cs3)nc2c1C [Compound 13]					43% and 83%	51% and 95%	90% and 87%	89% and 82%	
COc1ccc2c(O[C@@H]3C[C@H]4C(=O)N[C@]5(C(=O)NS(=O)(=O)C6CC6)C[C@H]5/C=C\CCCCN(C)C(=O)N4C3)cc(-c3nc(C(C)C)cs3)nc2c1 [Compound 21]	151	135	109	25					
COc1ccc2c(O[C@@H]3C[C@H]4C(=O)N[C@]5(C(=O)NS(=O)(=O)C6CC6)C[C@H]5/C=C\CCCCN(C)C(=O)[C@@H]4C3)cc(-c3nc(C(C)C)cs3)nc2c1 [Compound 7]	166	160	141	48					
CC(C)CN(C[C@H](O)[C@@H](Cc1ccccc1)NC(=O)OCc1cncs1)S(=O)(=O)c1ccc2nc(N)oc2c1 [compound of formula (II)]									almost complete blocking
COc1ccc2c(O[C@@H]3C[C@H]4C(=O)N[C@]5(C(=O)NS(=O)(=O)C6CC6)C[C@H]5/C=C\CCCCCCC(=O)N4C3)cc(-c3nc(C(C)C)cs3)nc2c1 [Compound 26]	128	101	16	0					
COc1ccc2c(O[C@@H]3C[C@H]4C(=O)N[C@]5(C(=O)O)C[C@H]5/C=C\CCCCC[C@H](NC(=O)OC5CCCC5)C(=O)N4C3)cc(-c3csc(NC(C)C)n3)nc2c1 [BILN-2061, reference compound]	163	128	129	76					

Source: patent US20120220520A1, “BIOAVAILABLE COMBINATIONS FOR HCV TREATMENT” (priority 2006, published 2012)
